Tests used:
Type in all cases: functional, organism-based
Plasmodium falciparum [1] = test: Antimalarial activity against chloroquine-resistant Plasmodium falciparum W2 assessed as plasmodial LDH activity
Plasmodium falciparum [2] = test: Antimalarial activity against chloroquine-sensitive Plasmodium falciparum D6 assessed as plasmodial LDH activity
Plasmodium falciparum [3] = test: Antiplasmodial activity against chloroquine-resistant Plasmodium falciparum W2 by NBT assay
Plasmodium falciparum [4] = test: Antiplasmodial activity against chloroquine-sensitive Plasmodium falciparum D6 by NBT assay

Compound | IC50 (Plasmodium falciparum [1]) | IC50 (Plasmodium falciparum [2]) | IC50 (Plasmodium falciparum [3]) | IC50 (Plasmodium falciparum [4])
CCN1CCN(c2nccc(NCCNc3ccnc4cc(Cl)ccc34)n2)CC1 | 50 nM | 50 nM | – | –
Cc1cc(N2CCN(c3ccnc4cc(Cl)ccc34)CC2)nc(Nc2ccc(F)cc2)n1 | 130 nM | 130 nM | – | –
Cc1cc(N2CCCCC2)nc(NCCNc2ccnc3cc(Cl)ccc23)n1 | – | – | 16 nM | 6 nM
CN1CCN(c2ccnc(NCCNc3ccnc4cc(Cl)ccc34)n2)CC1 | – | – | 16 nM | 6 nM
CCN1CCN(c2ccnc(NCCCNc3ccnc4cc(Cl)ccc34)n2)CC1 | – | – | 16 nM | 6 nM
Cc1cc(NCCCNc2ccnc3cc(Cl)ccc23)nc(NCCCCO)n1 | 50 nM | 50 nM | – | –
Fc1ccc(Nc2nccc(N3CCN(c4ccnc5cc(Cl)ccc45)CC3)n2)cc1 | 130 nM | 130 nM | – | –
COc1ccc(Nc2nccc(N3CCN(c4ccnc5cc(Cl)ccc45)CC3)n2)cc1 | 130 nM | 130 nM | – | –
CN1CCN(c2nccc(NCCNc3ccnc4cc(Cl)ccc34)n2)CC1 | 50 nM | 50 nM | – | –
OCCNc1nccc(NCCCCNc2ccnc3cc(Cl)ccc23)n1 | 50 nM | 50 nM | – | –
CN1CCN(c2nc(Cl)cc(NCCCNc3ccnc4cc(Cl)ccc34)n2)CC1 | 50 nM | 50 nM | – | –
Cc1cc(NCCCCNc2ccnc3cc(Cl)ccc23)nc(NCCO)n1 | 50 nM | 50 nM | – | –
Cc1cc(NCCCNc2ccnc3cc(Cl)ccc23)nc(NCCCCCO)n1 | 50 nM | 50 nM | – | –
OCCCNc1nccc(NCCNc2ccnc3cc(Cl)ccc23)n1 | 50 nM | 50 nM | – | –
OCCNc1nccc(NCCNc2ccnc3cc(Cl)ccc23)n1 | 50 nM | 50 nM | – | –
Clc1ccc2c(NCCNc3nccc(N4CCOCC4)n3)ccnc2c1 | – | – | 16 nM | 6 nM
CCN1CCN(c2nc(Cl)cc(NCCNc3ccnc4cc(Cl)ccc34)n2)CC1 | 50 nM | 50 nM | – | –
Clc1ccc2c(NCCCNc3ccnc(Cl)n3)ccnc2c1 | 50 nM | 50 nM | – | –
CN1CCN(c2nccc(NCCCNc3ccnc4cc(Cl)ccc34)n2)CC1 | 50 nM | 50 nM | – | –
Cc1cc(N2CCN(c3ccnc4cc(Cl)ccc34)CC2)nc(Nc2ccc(Cl)cc2)n1 | 130 nM | 130 nM | – | –
Cc1cc(N2CCCCC2)nc(NCCCCCCNc2ccnc3cc(Cl)ccc23)n1 | – | – | 16 nM | 6 nM
OCCCCNc1nccc(NCCCCNc2ccnc3cc(Cl)ccc23)n1 | 50 nM | 50 nM | – | –

Compound | IC50 (Plasmodium falciparum [1]) | IC50 (Plasmodium falciparum [2]) | IC50 (Plasmodium falciparum [3]) | IC50 (Plasmodium falciparum [4])
COc1cc(Nc2nc(C)cc(N3CCN(c4ccnc5cc(Cl)ccc45)CC3)n2)cc(OC)c1 | 130 nM | 130 nM | – | –
OCCNc1nccc(NCCCNc2ccnc3cc(Cl)ccc23)n1 | 50 nM | 50 nM | – | –
Cc1cc(NCCNc2ccnc3cc(Cl)ccc23)nc(NCCCCO)n1 | 50 nM | 50 nM | – | –
Cc1cc(N2CCN(c3ccnc4cc(Cl)ccc34)CC2)nc(NCCCO)n1 | 130 nM | 130 nM | – | –
OCCCNc1nccc(NCCCNc2ccnc3cc(Cl)ccc23)n1 | 50 nM | 50 nM | – | –
Cc1cc(N2CCOCC2)nc(NCCCCCCNc2ccnc3cc(Cl)ccc23)n1 | – | – | 16 nM | 6 nM
Clc1ccc2c(N3CCN(c4ccnc(Nc5ccc(Br)cc5)n4)CC3)ccnc2c1 | 130 nM | 130 nM | – | –
Cc1cc(N2CCOCC2)nc(NCCNc2ccnc3cc(Cl)ccc23)n1 | – | – | 16 nM | 6 nM
Cc1cc(N2CCOCC2)nc(NCCCNc2ccnc3cc(Cl)ccc23)n1 | – | – | 16 nM | 6 nM
Clc1ccc2c(NCCNc3cc(Cl)nc(N4CCOCC4)n3)ccnc2c1 | 50 nM | 50 nM | – | –
Cc1cc(N2CCOCC2)nc(NCCCCNc2ccnc3cc(Cl)ccc23)n1 | – | – | 16 nM | 6 nM
Cc1cc(NCCCNc2ccnc3cc(Cl)ccc23)nc(NCCCO)n1 | 50 nM | 50 nM | – | –
OCCCCCCNc1nccc(NCCNc2ccnc3cc(Cl)ccc23)n1 | 50 nM | 50 nM | – | –
Clc1ccc2c(NCCCNc3ccnc(N4CCOCC4)n3)ccnc2c1 | 50 nM | 50 nM | – | –
Clc1ccc2c(NCCCNc3ccnc(N4CCCCC4)n3)ccnc2c1 | 50 nM | 50 nM | – | –
Cc1cc(N2CCCCC2)nc(NCCCCNc2ccnc3cc(Cl)ccc23)n1 | – | – | 16 nM | 6 nM
OCCCNc1nccc(N2CCN(c3ccnc4cc(Cl)ccc34)CC2)n1 | 130 nM | 130 nM | – | –
Clc1ccc2c(NCCCNc3nc(Cl)cc(Cl)n3)ccnc2c1 | – | – | 16 nM | 6 nM
Cc1cc(N2CCN(C)CC2)nc(NCCNc2ccnc3cc(Cl)ccc23)n1 | – | – | 16 nM | 6 nM
OCCCCCNc1nccc(NCCNc2ccnc3cc(Cl)ccc23)n1 | 50 nM | 50 nM | – | –
OCCCCCNc1nccc(NCCCNc2ccnc3cc(Cl)ccc23)n1 | 50 nM | 50 nM | – | –
Clc1ccc2c(NCCNc3nc(Cl)cc(Cl)n3)ccnc2c1 | – | – | 16 nM | 6 nM

Compound | IC50 (Plasmodium falciparum [1]) | IC50 (Plasmodium falciparum [2]) | IC50 (Plasmodium falciparum [3]) | IC50 (Plasmodium falciparum [4])
OCCCCCCNc1nccc(NCCCNc2ccnc3cc(Cl)ccc23)n1 | 50 nM | 50 nM | – | –
Cc1cc(N2CCN(c3ccnc4cc(Cl)ccc34)CC2)nc(N2CCNCC2)n1 | 130 nM | 130 nM | – | –
Cc1cc(N2CCN(c3ccnc4cc(Cl)ccc34)CC2)nc(N2CCCC2)n1 | 130 nM | 130 nM | – | –
OCCCCCNc1nccc(NCCCCNc2ccnc3cc(Cl)ccc23)n1 | 50 nM | 50 nM | – | –
Cc1cc(N2CCN(c3ccnc4cc(Cl)ccc34)CC2)nc(N2CCOCC2)n1 | 130 nM | 130 nM | – | –
Clc1ccc2c(NCCNc3cc(Cl)nc(Cl)n3)ccnc2c1 | 50 nM | 50 nM | – | –
Clc1ccc2c(NCCCNc3cc(Cl)nc(Cl)n3)ccnc2c1 | 50 nM | 50 nM | – | –
OCCCCCCNc1nccc(NCCCCNc2ccnc3cc(Cl)ccc23)n1 | 50 nM | 50 nM | – | –
Clc1ccc2c(NCCNc3cc(Cl)nc(N4CCCCC4)n3)ccnc2c1 | 50 nM | 50 nM | – | –
CN1CCN(c2nc(Cl)cc(NCCNc3ccnc4cc(Cl)ccc34)n2)CC1 | 50 nM | 50 nM | – | –
OCCCNc1nccc(NCCCCNc2ccnc3cc(Cl)ccc23)n1 | 50 nM | 50 nM | – | –
Cc1cc(NCCNc2ccnc3cc(Cl)ccc23)nc(NCCCCCO)n1 | 50 nM | 50 nM | – | –
Cc1cc(N2CCN(c3ccnc4cc(Cl)ccc34)CC2)nc(Nc2ccccc2)n1 | 130 nM | 130 nM | – | –
CCN1CCN(c2ccnc(NCCNc3ccnc4cc(Cl)ccc34)n2)CC1 | – | – | 16 nM | 6 nM
Clc1ccc2c(NCCCNc3cc(Cl)nc(N4CCOCC4)n3)ccnc2c1 | 50 nM | 50 nM | – | –
COc1ccc(Nc2nc(C)cc(N3CCN(c4ccnc5cc(Cl)ccc45)CC3)n2)cc1 | 130 nM | 130 nM | – | –
Cc1cc(N2CCN(c3ccnc4cc(Cl)ccc34)CC2)nc(Cl)n1 | 130 nM | 130 nM | – | –
Clc1ccc2c(NCCNc3nccc(Cl)n3)ccnc2c1 | – | – | 16 nM | 6 nM
CCN1CCN(c2nc(Cl)cc(NCCCNc3ccnc4cc(Cl)ccc34)n2)CC1 | 50 nM | 50 nM | – | –
CCN1CCN(c2cc(C)nc(NCCCCNc3ccnc4cc(Cl)ccc34)n2)CC1 | – | – | 16 nM | 6 nM
Clc1ccc2c(NCCNc3ccnc(N4CCCCC4)n3)ccnc2c1 | 50 nM | 50 nM | – | –
Cc1cc(NCCNc2ccnc3cc(Cl)ccc23)nc(NCCCCCCO)n1 | 50 nM | 50 nM | – | –

Compound | IC50 (Plasmodium falciparum [1]) | IC50 (Plasmodium falciparum [2]) | IC50 (Plasmodium falciparum [3]) | IC50 (Plasmodium falciparum [4])
Clc1ccc2c(N3CCN(c4ccnc(Nc5ccccc5)n4)CC3)ccnc2c1 | 130 nM | 130 nM | – | –
Clc1ccc(Nc2nccc(N3CCN(c4ccnc5cc(Cl)ccc45)CC3)n2)cc1 | 130 nM | 130 nM | – | –
Cc1cc(NCCCNc2ccnc3cc(Cl)ccc23)nc(NCCCCCCO)n1 | 50 nM | 50 nM | – | –
Cc1ccc(Nc2nccc(N3CCN(c4ccnc5cc(Cl)ccc45)CC3)n2)cc1 | 130 nM | 130 nM | – | –
Cc1cc(NCCCCNc2ccnc3cc(Cl)ccc23)nc(NCCCO)n1 | 50 nM | 50 nM | – | –
CCN1CCN(c2nccc(NCCCNc3ccnc4cc(Cl)ccc34)n2)CC1 | 50 nM | 50 nM | – | –
OCCNc1nccc(N2CCN(c3ccnc4cc(Cl)ccc34)CC2)n1 | 130 nM | 130 nM | – | –
Clc1ccc2c(NCCCNc3cc(Cl)nc(N4CCCCC4)n3)ccnc2c1 | 50 nM | 50 nM | – | –
COc1cc(Nc2nccc(N3CCN(c4ccnc5cc(Cl)ccc45)CC3)n2)cc(OC)c1 | 130 nM | 130 nM | – | –
Cc1cc(NCCNc2ccnc3cc(Cl)ccc23)nc(NCCCO)n1 | 50 nM | 50 nM | – | –
OCCCCNc1nccc(NCCCNc2ccnc3cc(Cl)ccc23)n1 | 50 nM | 50 nM | – | –
Cc1cc(NCCCCNc2ccnc3cc(Cl)ccc23)nc(NCCCCCCO)n1 | 50 nM | 50 nM | – | –
OCCCCNc1nccc(NCCNc2ccnc3cc(Cl)ccc23)n1 | 50 nM | 50 nM | – | –
Clc1ccc2c(NCCNc3ccnc(Cl)n3)ccnc2c1 | 50 nM | 50 nM | – | –
Cc1cc(NCCNc2ccnc3cc(Cl)ccc23)nc(NCCO)n1 | 50 nM | 50 nM | – | –
Cc1cc(N2CCN(c3ccnc4cc(Cl)ccc34)CC2)nc(NCCO)n1 | 130 nM | 130 nM | – | –
Cc1ccc(Nc2nc(C)cc(N3CCN(c4ccnc5cc(Cl)ccc45)CC3)n2)cc1 | 130 nM | 130 nM | – | –
Cc1cc(NCCCNc2ccnc3cc(Cl)ccc23)nc(NCCO)n1 | 50 nM | 50 nM | – | –
Cc1cc(N2CCN(c3ccnc4cc(Cl)ccc34)CC2)nc(Nc2ccc(Br)cc2)n1 | 130 nM | 130 nM | – | –
Cc1cc(NCCCCNc2ccnc3cc(Cl)ccc23)nc(NCCCCO)n1 | 50 nM | 50 nM | – | –
Cc1cc(N2CCN(c3ccnc4cc(Cl)ccc34)CC2)nc(NC2CCCCC2)n1 | 130 nM | 130 nM | – | –
Cc1cc(NCCCCNc2ccnc3cc(Cl)ccc23)nc(NCCCCCO)n1 | 50 nM | 50 nM | – | –

Reference: ChEMBL document CHEMBL3817764, “Pyrimidine-based antimalarials: design strategies and antiplasmodial effects” (Medchemcomm, 2016)
